Laboratory results from PubChem BioAssay AID248 (DTP/NCI, 2004).
Where “and” joins values, the source holds several entries; their conditions need not be identical. Equal entries are not always repeated. Inconclusive results and toxic doses are left out. No stated cut-off is given here; in the data, active means T/C of 150% or more; inactive means T/C below 125%.

System: L1210 leukemia ip in BDF1 mice, survival T/C
Test: NCI In Vivo Anticancer Drug Screen. Data for tumor model L1210 Leukemia (intraperitoneal) in B6D2F1 (BDF1) mice
Conditions: endpoint: mean survival time, higher = longer survival
In short: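 Each compound was tested against a transplantable tumor grown in mice. The endpoint was survival, with treated animals benchmarked against vehicle controls as a simple ratio.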

[1] = dose: 6.25 mg/kg/injection, schedule: Q01DX009 (ip), vehicle: saline
[2] = dose: 12.5 mg/kg/injection, schedule: Q01DX009 (ip), vehicle: saline
[3] = dose: 25.0 mg/kg/injection, schedule: Q01DX009 (ip), vehicle: saline
[4] = dose: 25.0 mg/kg/injection, schedule: Q04DX003 (ip), vehicle: saline
[5] = dose: 50.0 mg/kg/injection, schedule: Q01DX009 (ip), vehicle: saline with Tween-80
[6] = dose: 100.0 mg/kg/injection, schedule: Q01DX009 (ip), vehicle: saline with Tween-80
[7] = dose: 200.0 mg/kg/injection, schedule: Q01DX009 (ip), vehicle: saline with Tween-80
[8] = dose: 100.0 mg/kg/injection, schedule: Q01DX009 (ip), vehicle: Klucel (hydroxypropylcellulose) (HPC)
[9] = dose: 200.0 mg/kg/injection, schedule: Q01DX009 (ip), vehicle: Klucel (hydroxypropylcellulose) (HPC)
[10] = dose: 100.0 mg/kg/injection, schedule: Q01DX001 (ip), vehicle: saline
[11] = dose: 200.0 mg/kg/injection, schedule: Q01DX001 (ip), vehicle: saline
[12] = dose: 400.0 mg/kg/injection, schedule: Q01DX001 (ip), vehicle: saline
[13] = dose: 400.0 mg/kg/injection, schedule: Q01DX009 (ip), vehicle: Klucel (hydroxypropylcellulose) (HPC)
[14] = dose: 25.0 mg/kg/injection, schedule: Q04DX003 (ip), vehicle: Klucel (hydroxypropylcellulose) (HPC)
[15] = dose: 50.0 mg/kg/injection, schedule: Q01DX009 (ip), vehicle: Klucel (hydroxypropylcellulose) (HPC)
[16] = dose: 50.0 mg/kg/injection, schedule: Q04DX003 (ip), vehicle: Klucel (hydroxypropylcellulose) (HPC)
[17] = dose: 400.0 mg/kg/injection, schedule: Q01DX009 (ip), vehicle: saline with Tween-80
[18] = dose: 100.0 mg/kg/injection, schedule: Q04DX003 (ip), vehicle: Klucel (hydroxypropylcellulose) (HPC)

Measured: T/C

C[N+](C)(C)CCOC(=O)c1ccc(CBr)c(CBr)c1
inactive: [1] 97 % of control | dose: 6.25 mg/kg/injection, schedule: Q04DX003 (ip), vehicle: saline 96 % of control | [2] 99 % of control | dose: 12.5 mg/kg/injection, schedule: Q04DX003 (ip), vehicle: saline 96 % of control | [3] 104 % of control | [4] 98 % of control

O=C(NCCO)c1ccc(Br)cc1
inactive: [5] 97 % of control | [6] 97 % of control | [7] 90 % of control

O=C(Nc1cccc(C2=NCCN2)c1)c1ccc(C(=O)Nc2cccc(C3=NCCN3)c2)c([N+](=O)[O-])c1
inactive: dose: 1.25 mg/kg/injection, schedule: Q01DX Z (ip), vehicle: saline 93 % of control | dose: 2.5 mg/kg/injection, schedule: Q01DX Z (ip), vehicle: saline 90 % of control | dose: 5.0 mg/kg/injection, schedule: Q01DX Z (ip), vehicle: saline 86 % of control

CCCC(=O)Nc1cc(OC)ccc1OC
inactive: [8] 106 % of control | [9] 97 % of control

C=CC(N)=O (tested in a mixture with another compound)
inactive: [10] 99 % of control | [11] 99 % of control | [12] 89 % of control

CC1OCOC2COCOC2C1O (stereo not given)
inactive: [8] 92 % of control | [9] 94 % of control | [13] 97 % of control

Clc1ccc2nc(-c3ccc(Cl)c(Cl)c3)cc(-c3ccccc3)c2c1
inactive: [8] 94 % of control | [9] 86 % of control | [13] 97 % of control

C=CCc1ccc(OCCOCCN(CC=C(C)C)CC=C(C)C)c(OC)c1
inactive: dose: 12.5 mg/kg/injection, schedule: Q01DX009 (ip), vehicle: Klucel (hydroxypropylcellulose) (HPC) 100 % of control | dose: 12.5 mg/kg/injection, schedule: Q04DX003 (ip), vehicle: Klucel (hydroxypropylcellulose) (HPC) 96 % of control | dose: 25.0 mg/kg/injection, schedule: Q01DX009 (ip), vehicle: Klucel (hydroxypropylcellulose) (HPC) 97 % of control | [14] 98 % of control | [15] 95 % of control | [16] 88 % of control

O=S1(=O)C(c2ccccc2)CC1c1ccccc1 (stereo not given)
inactive: dose: 75.0 mg/kg/injection, schedule: Q04DX003 (ip), vehicle: Klucel (hydroxypropylcellulose) (HPC) 107 % of control | dose: 150.0 mg/kg/injection, schedule: Q04DX003 (ip), vehicle: Klucel (hydroxypropylcellulose) (HPC) 104 % of control | dose: 300.0 mg/kg/injection, schedule: Q04DX003 (ip), vehicle: Klucel (hydroxypropylcellulose) (HPC) 96 % of control

O=c1[nH]c2cnccc2c(=O)n1O
inactive: [6] 102 % of control | [7] 93 % of control | [17] 104 % of control

Nc1ccc([N+](=O)[O-])cc1[N+](=O)[O-]
inactive: [14] 103 % of control | [16] 98 % of control | [18] 95 % of control and 105 % of control

CCP(=O)(CC(=O)O)c1ccccc1 (stereo not given)
inactive: dose: 100.0 mg/kg/injection, schedule: Q04DX002 (ip), vehicle: saline with Tween-80 109 % of control | dose: 200.0 mg/kg/injection, schedule: Q04DX002 (ip), vehicle: saline with Tween-80 103 % of control | dose: 400.0 mg/kg/injection, schedule: Q04DX002 (ip), vehicle: saline with Tween-80 103 % of control

CC(=O)c1cccc(NC(=O)OCC2CC3C=CC2C3)c1 (stereo not given)
inactive: [8] 112 % of control | [9] 104 % of control | [13] 103 % of control

COc1ccc(OC)c2cc3ccccc3cc12
inactive: dose: 100.0 mg/kg/injection, schedule: Q01DX001 (ip), vehicle: carboxymethylcellulose (CMC) 106 % of control | dose: 200.0 mg/kg/injection, schedule: Q01DX001 (ip), vehicle: carboxymethylcellulose (CMC) 104 % of control | dose: 400.0 mg/kg/injection, schedule: Q01DX001 (ip), vehicle: carboxymethylcellulose (CMC) 93 % of control

CCCCCCCCCCCCCC(CCC)CCC
inactive: [10] 94 % of control | [11] 96 % of control | [12] 94 % of control

CNC(C(=O)O)c1ccccc1 (stereo not given)
inactive: dose: 100.0 mg/kg/injection, schedule: Q01DX001 (ip), vehicle: steriod suspending solution 89 % of control | dose: 200.0 mg/kg/injection, schedule: Q01DX001 (ip), vehicle: steriod suspending solution 97 % of control | dose: 400.0 mg/kg/injection, schedule: Q01DX001 (ip), vehicle: steriod suspending solution 87 % of control

OCCN1CCN(CCCN2c3ccccc3C=Cc3ccccc32)CC1
inactive: [1] 93 % of control | [2] 93 % of control | [3] 95 % of control | [4] 93 % of control | dose: 50.0 mg/kg/injection, schedule: Q01DX009 (ip), vehicle: saline 102 % of control | dose: 50.0 mg/kg/injection, schedule: Q04DX003 (ip), vehicle: saline 98 % of control | dose: 100.0 mg/kg/injection, schedule: Q04DX003 (ip), vehicle: saline 102 % of control

O=C1/C(=C\c2ccccc2)C2CCC(C2)/C1=C\c1ccccc1
inactive: [15] 99 % of control | [8] 102 % of control | [9] 99 % of control

CCOC(=O)CCC(NC(=O)CCCCSc1ncnc2nc[nH]c12)C(=O)OCC (stereo not given)
inactive: dose: 25.0 mg/kg/injection, schedule: Q01DX009 (ip), vehicle: saline with Tween-80 97 % of control | dose: 25.0 mg/kg/injection, schedule: Q01DX009 (oral), vehicle: saline with Tween-80 90 % of control | [5] 101 % of control | dose: 50.0 mg/kg/injection, schedule: Q01DX009 (oral), vehicle: saline with Tween-80 86 % of control | [6] 106 % of control | dose: 100.0 mg/kg/injection, schedule: Q01DX009 (oral), vehicle: saline with Tween-80 100 % of control | [7] 111 % of control | dose: 200.0 mg/kg/injection, schedule: Q01DX009 (oral), vehicle: saline with Tween-80 88 % of control | [17] 107 % of control | dose: 400.0 mg/kg/injection, schedule: Q01DX009 (oral), vehicle: saline with Tween-80 95 % of control

N#Cc1c(N)nc2ccccc2[n+]1[O-]
inactive: [15] 94 % of control | [8] 97 % of control | [9] 100 % of control

Clc1ccccc1CC12CCCCC1N2 (stereo not given)
inactive: [18] 103 % of control | dose: 200.0 mg/kg/injection, schedule: Q04DX003 (ip), vehicle: Klucel (hydroxypropylcellulose) (HPC) 90 % of control | dose: 400.0 mg/kg/injection, schedule: Q04DX003 (ip), vehicle: Klucel (hydroxypropylcellulose) (HPC) 103 % of control

O=C(O)C12C3CCC(O3)C1(C(=O)O)C1CCC2O1 (stereo not given)
inactive: dose: 100.0 mg/kg/injection, schedule: Q04DX002 (ip), vehicle: Klucel (hydroxypropylcellulose) (HPC) 104 % of control | dose: 200.0 mg/kg/injection, schedule: Q04DX002 (ip), vehicle: Klucel (hydroxypropylcellulose) (HPC) 104 % of control | dose: 400.0 mg/kg/injection, schedule: Q04DX002 (ip), vehicle: Klucel (hydroxypropylcellulose) (HPC) 104 % of control

O=C(O)CCc1c(O)cc(Br)c(O)c1Br
inactive: dose: 100.0 mg/kg/injection, schedule: Q01DX001 (ip), vehicle: Klucel (hydroxypropylcellulose) (HPC) 90 % of control | dose: 200.0 mg/kg/injection, schedule: Q01DX001 (ip), vehicle: Klucel (hydroxypropylcellulose) (HPC) 93 % of control | dose: 400.0 mg/kg/injection, schedule: Q01DX001 (ip), vehicle: Klucel (hydroxypropylcellulose) (HPC) 96 % of control
